Drawing on US4374139A, “Levorotatory N-substituted acylmorphinans useful as analgesic agents” (priority 1981, dated 1983), this text covers ED50 for 11 compounds.

Where a name gives a salt, the structure may show the parent alone. Read-outs that look alike come from different tables or passages of the source.

Experiment [1] concerns mice exposed to intra-abdominally induced chemical pain. Kind of experiment: animal or person. In kind it is in vivo, mouse. As for the experimental part: (§1) The ED50 was the dose which reduced the total number of writhes by 50%. […] A modification of the tail flick test described by Dewey and Harris (in: S. Ehrenpreis and A. Neidle (eds.), Methods in Narcotics Research, Marcel Dekker, Inc., New York, 1975, pp. 101-108) was used to measure the tail flick reaction times following oral or subcutaneous administration of the compounds of formula I of the invention.
(§2) Doses were calculated as the salts of all the compounds. Injection volume was 0.1 ml/10 g body weight. For each test compound, ED 50 values were calculated separately for each test. Log dose regression analysis and Fieller's Theorem were used to compute the ED 50 and its 95 percent confidence limits. The analysis was performed on the tail flick latency scores of all mice that were treated with a test compound. For any given test, the average tail flick latency score of the vehicle control group was calculated and a latency value, Z, was derived from this, as follows: [formula] where the cutoff time was 10 seconds. […] The value of Z was entered as an interpolate into the regression analysis so that an ED50, defined as the dose that increased tail flick latencies by 50 percent of the maximum possible response, could be computed.

In experiment [2] the test system is mice exposed to radiant heat stimulus on the tail. The experiment in a line: animal or person. In kind it is in vivo, male mice (Charles River, CF-1/CD).
Excerpt: as §1
More specifically, groups of 10 male mice (Charles River, CF-1/CD, 18-22 gm) were placed in individual stainless steel, ventilated, cylindrical restrainers with their tails protruding through a hole at one end. The restraining tubes were positioned on a sliding platform so that each mouse, in turn, could be exposed to a high intensity lamp. The rays from the lamp were focused by means of a parabolic reflector directly on the tail. The intensity of the heat was adjusted by means of a rheostat so that untreated mice would responsed in approximately 2 to 4 seconds. When the endpoint response occurred (a sudden twitch of the tail, removing it from the path of the radiant heat stimulus), the experimenter stopped a reaction time clock. In the event that no response occurred within 10 seconds (the cutoff time), the tester terminated the trial and assigned a latency score of 10 seconds for that trial. The reaction time of each mouse was determined before and again 30,60,90 and 120 minutes after treatment.
Each group of 10 mice was treated orally or subcutaneously with vehicle (normal saline) or with logarithmically spaced doses of the test compounds. For most compounds, four dose levels, which were studied in a single test session, were sufficient to provide a satisfactory estimate of the ED50. Occasionally, five or six does levels were needed. […] Because of this, some vehicle control groups and dosed groups consisted of a total of 20 mice, rather than 10.
as §2

[3] abbreviates: mouse, oral, dose which reduced the total number of writhes by 50%, doses as the salts, read-out: ED50 Writhing Oral.
Where [4] appears, read: sc, mouse, subcutaneous, dose which reduced the total number of writhes by 50%, doses as the salts, read-out: ED50 Writhing Subcu.
[5] abbreviates: mouse, oral, dose that increased tail flick latencies by 50 percent of the maximum possible response, cutoff 10 seconds, doses as the salts, read-out: ED50 Tail Flick Oral.
Setting [6] is: sc, mouse, subcutaneous, dose that increased tail flick latencies by 50 percent of the maximum possible response, cutoff 10 seconds, doses as the salts, read-out: ED50 Tail Flick Subcu.
Setting [7] is: Mus musculus, po, read-out: ED50 Writhing Oral.
The mark [8] stands for this setting: Mus musculus, sc, read-out: ED50 Writhing Subcu.
Where [9] appears, read: Mus musculus, po, read-out: ED50 Tail Flick Oral.
The mark [10] stands for this setting: Mus musculus, sc, read-out: ED50 Tail Flick Subcu.

Turning to `CCC(=O)c1ccc2c(c1)[C@@]13CCCC[C@H]1[C@@H](C2)N(C)CC3.Cl` [(-)-1-(17-methylmorphinan-3-yl)-1-propanone hydrochloride], the ED50 is 1.9 mg/kg in experiment [1] (setting [3]), 0.22 mg/kg in experiment [1] (setting [4]), 12 mg/kg in experiment [2] (setting [5]) and 2.3 mg/kg in experiment [2] (setting [6]).

On to `CC(=O)c1ccc2c(c1)[C@@]13CCCC[C@H]1[C@@H](C2)N(CC=C(C)C)CC3.O.O=C(O)C(O)C(O)C(=O)O` [(-)-1-[17-(3-methyl-2-butenyl)morphinan-3-yl]ethanone d-tartrate monohydrate], for which the ED50 is 43 mg/kg in experiment [1] (setting [7]), 5.9 mg/kg in experiment [1] (setting [8]), 115 mg/kg in experiment [2] (setting [9]) and approximately 50 mg/kg in experiment [2] (setting [10]).

In the case of `CC(=O)c1ccc2c(c1)[C@@]13CCCC[C@H]1[C@@H](C2)N(CCc1ccccc1)CC3` [(-)-1-[N-(2-phenethyl)morphinan-3-yl]ethanone d-tartrate hemihydrate], the ED50 in experiment [1] (setting [3]) is 1.2 mg/kg; in experiment [1] (setting [4]) it was 0.39 mg/kg; in experiment [2] (setting [5]) it was 10.4 mg/kg; in experiment [2] (setting [6]) it was 1.8 mg/kg.

Regarding `CC(=O)c1ccc2c(c1)[C@@]13CCCC[C@H]1[C@@H](C2)N(CC1CC1)CC3.Cl` [(-)-1-[N-(cyclopropylmethyl)morphinan-3-yl]-ethanone hydrochloride], the ED50 is 2.1 mg/kg in experiment [1] (setting [3]), 0.18 mg/kg in experiment [1] (setting [4]), 1.5 mg/kg in experiment [2] (setting [5]) and 2.3 mg/kg in experiment [2] (setting [6]).

For `CC(=O)c1ccc2c(c1)C[C@@H]1[C@@H]3CCCC[C@]23CCN1C.O=C(O)C(O)C(O)C(=O)O` [(-)-2-acetyl-N-methylmorphinan d-tartrate], the ED50 in experiment [1] (setting [7]) was 22.3 mg/kg; in experiment [1] (setting [8]), 4 mg/kg; in experiment [2] (setting [9]) it was 75 mg/kg; in experiment [2] (setting [10]) it was more than 50 mg/kg.

`CC(=O)c1ccc2c(c1)[C@@]13CCCC[C@H]1[C@@H](C2)N(CCC#N)CC3.Cl` [(-)-3-acetyl-17-morphinanpropanenitrile hydrochloride]: the ED50 in experiment [1] (setting [3]) is 4.4 mg/kg; in experiment [1] (setting [4]) it was 0.57 mg/kg; in experiment [2] (setting [5]) it was 51.2 mg/kg; in experiment [2] (setting [6]), 6.1 mg/kg.

As to `CC(=O)c1ccc2c(c1)[C@@]13CCCC[C@H]1[C@@H](C2)N(CC1CCC1)CC3.Cl` [(-)-3-acetyl-N-cyclobutylmethylmorphinan hydrochloride], the ED50 in experiment [1] (setting [3]) was found to be 5.7 mg/kg; in experiment [1] (setting [4]), 1.2 mg/kg; in experiment [2] (setting [5]), 27.6 mg/kg; in experiment [2] (setting [6]), 4.9 mg/kg.

Regarding `CC(=O)c1ccc2c(c1)[C@@]13CCCC[C@H]1[C@@H](C2)N(C)CC3.O=C(O)C(O)C(O)C(=O)O` [(-)-3-acetyl-N-methylmorphinan d-tartrate], the ED50 in experiment [1] (setting [7]) came to 0.5 mg/kg; in experiment [1] (setting [8]) it was 0.08 mg/kg; in experiment [2] (setting [9]) it was 2 mg/kg; in experiment [2] (setting [10]), 3.9 mg/kg.

As for `CN1CC[C@]23CCCC[C@H]2[C@H]1Cc1ccc(C(=O)c2ccccc2)cc13.O=C(O)C(O)C(O)C(=O)O` [(-)-(17-methylmorphinan-3-yl)phenylmethanone d-tartrate], the ED50 in experiment [1] (setting [7]) is 35.5 mg/kg; in experiment [1] (setting [8]), 22.2 mg/kg; in experiment [2] (setting [9]) it was more than 200 mg/kg; in experiment [2] (setting [10]) it was more than 50 mg/kg.

As for `CN1CC[C@]23CCCC[C@H]2[C@H]1Cc1ccc(C(C)(C)O)cc13` [(-)-α,α-17-trimethylmorphinan-3-methanol hydrochloride], the ED50 in experiment [1] (setting [3]) came out at 2.5 mg/kg; in experiment [1] (setting [4]), 1.05 mg/kg; in experiment [2] (setting [5]), 12 mg/kg; in experiment [2] (setting [6]), 4.3 mg/kg.

Take `CC(O)c1ccc2c(c1)[C@@]13CCCC[C@H]1[C@@H](C2)N(C)CC3` (stereo partly drawn) [(-)-α-17-dimethylmorphinan-3-methanol hydrochloride]: the ED50 came out at 0.36 mg/kg in experiment [1] (setting [3]), 0.24 mg/kg in experiment [1] (setting [4]), 1.1 mg/kg in experiment [2] (setting [5]) and 1.3 mg/kg in experiment [2] (setting [6]).

One may read the ED50 as the midpoint of the dose-response relation.
